≈ marks a conversion by molar mass, not a printed value.
Columns and labels:
[1] = test system: cytochrome P450 (CYP450) enzymes
CYP3A4 = CYP3A4 (Homo sapiens (Human), UniProt P08684); assay: Human Cytochrome P450 Inhibition Assay (Bactosomes); assay type: in vitro ADME; settings: recombinant Bactosomes, 10 minutes, 37° C.
hERG ion channel = hERG ion channel (Homo sapiens (Human), UniProt Q12809); assay: hERG Ion Channel Assay; assay type: cell-based; settings: for hERG cardiac safety profile (in words): compared to reference compounds such as ABD599 and ABD899; for IC50: hERG ion channel activity, hERG-CHO cells
Experimental: When the ability of hERG to conduct electrical current across the cell membrane is inhibited or compromised, it can result in a potentially fatal disorder called long QT syndrome. This association between hERG and long QT syndrome has made hERG inhibition an important anti-target that must be avoided during drug development.
The activity of the compounds against the hERG ion channel was tested using two approaches: a binding assay and an automated patch-clamp, Q-patch method using stably transfected Chinese Hamster Ovary cells (hERG-CHO). hERG-CHO cells were cultured in F-12 Kaighn's Nutrient Mixture medium (Invitrogen)+10% FBS at 37° C. for 1-3 days. Cells were kept at 30° C. for 24 to 48 hours prior to patch clamping in order to increase the hERG current amplitude. Subsequently, the cells were harvested by trypsinisation, and kept in Serum Free Medium (SFM) in the Q-patch cell preparation state for up to 6 hours at room temperature before being washed and re-suspended in extracellular solution and applied to the patch clamp sites for data recording.
Patch-clamp voltage protocol: After whole cell configuration was achieved, the cell was held at −80 mV. A 50 millisecond pulse to −40 mV was delivered to measure the leaking current, which was subtracted from the tail current on-line. Then the cell was depolarized to +20 mV for 2 seconds, followed by a one second pulse to −40 mV to reveal hERG tail current. This paradigm was delivered once every 5 seconds to monitor the current amplitude.
Extracellular solution: 137 mM NaCl, 4 mM KCl, 1.8 mM CaCl2), 1 mM MgCl2, 10 mM D(+)-glucose, 10 mM HEPES buffer (pH adjusted to 7.4 with NaOH).
After the whole cell configuration was achieved, the extracellular solution (control) was applied first and the cell was stabilized for 2 minutes in extracellular solution. The test compound was then applied from low concentrations to high concentrations cumulatively. The cell was incubated with each test concentration for 5 minutes. During each incubation, the cell was repetitively stimulated using the voltage protocol described above, and the tail current amplitude was continuously monitored.
Acceptance Criteria: • (1) Peak tail current >100 pA in control. • (2) Initial run-down <30% and the run-down stops before first application of the test compound. • (3) Leak currents <50% of the control peak tail currents at any time. • (4) rs<20 MΩ throughout the experiment.
The degree of inhibition (%) was obtained by measuring the tail current amplitude, induced by a one second test pulse to −40 mV after a two second pulse to +20 mV, before and after incubation with the test compound. The difference in current was normalized to control and multiplied by 100 in order to obtain the percent inhibition.
Concentration (log) response curves were fitted to a logistic equation (three parameters assuming complete block of the current at very high test compound concentrations) to generate estimates of the 50% inhibitory concentration (IC50). The concentration-response relationship of each compound was constructed from the percentage reductions of current amplitude by sequential concentrations.

[2] = Aqueous solubility in FaSSIF; assay type: physicochemical; settings: pH 6.5, three replicates; for solubility at 16 h: kinetic from dmso stock
Experimental: Aqueous solubility was measured by equilibration of compounds with fasted state simulated intestinal fluid (FaSSIF) and quantified spectrophotometrically.
Preparation of blank FaSSIF: 0.21 g of sodium hydroxide (NaOH) pellets, 1.97 g of dihydrogen sodium phosphate (NaH2PO4.2H2O) and 3.09 g of sodium chloride (NaCl) were dissolved in 400 mL of deionised water. The pH was adjusted to 6.5 using 1 M hydrochloric acid and further deionised water added to a final volume of 500 mL.
Preparation of FaSSIF: 0.056 g of SIF Powder (containing sodium taurocholate and lecithin) (Phares AG) was dissolved in 25 mL of blank FaSSIF and stirred until the powder was completely dissolved. The solution was allowed to stand for 2 hours during which it became opalescent; it was used within 24 hours. The final solution composition was characterised as follows: • Sodium taurocholate: 3 mM • Lecithin: 0.75 mM • Osmolarity: 270±10 mOsmol • pH: 6.5
The optical density was measured at the end of the incubation period for test compounds and a reference used to determine solubility. In brief, two samples were prepared for each determination: a reference sample consisting of a stock solution of test compound in DMSO diluted in system solution (a phosphate free, low absorption buffer) and propanol; and a test sample (prepared in triplicate) consisting of 0.5 mL FaSSIF spiked with test compound at 0.2 mM. Each sample was incubated at room temperature for 16 hours with constant shaking at 250 rpm. At the end of the incubation period, 0.3 mL of each sample was filtered through a pION filter plate (PION, Woburn MA), diluted 1:1 with propanol and scanned using UV spectrophotometry at λmax ([…]) using a Spectra Max Plus—Version 2.1000 (Molecular Devices, Sunnyvale, CA), with pSOL Explorer solubility determination software (pION, Woburn, MA).
FaSSIF solubility was calculated using the following formula:
[formula] • wherein: • “OD” is the optical density; • “Cr” is the concentration of the reference (33.4 μM); and • “molecular weight” is for the test compound (e.g., 381.44 for ABD735).

CYP2D6 = CYP2D6 (Homo sapiens (Human), UniProt P10635); assay: Human Cytochrome P450 Inhibition Assay (Bactosomes); assay type: in vitro ADME; settings: recombinant Bactosomes, 10 minutes, 37° C.
Chain of CYP2D6 (P10635 whole entry): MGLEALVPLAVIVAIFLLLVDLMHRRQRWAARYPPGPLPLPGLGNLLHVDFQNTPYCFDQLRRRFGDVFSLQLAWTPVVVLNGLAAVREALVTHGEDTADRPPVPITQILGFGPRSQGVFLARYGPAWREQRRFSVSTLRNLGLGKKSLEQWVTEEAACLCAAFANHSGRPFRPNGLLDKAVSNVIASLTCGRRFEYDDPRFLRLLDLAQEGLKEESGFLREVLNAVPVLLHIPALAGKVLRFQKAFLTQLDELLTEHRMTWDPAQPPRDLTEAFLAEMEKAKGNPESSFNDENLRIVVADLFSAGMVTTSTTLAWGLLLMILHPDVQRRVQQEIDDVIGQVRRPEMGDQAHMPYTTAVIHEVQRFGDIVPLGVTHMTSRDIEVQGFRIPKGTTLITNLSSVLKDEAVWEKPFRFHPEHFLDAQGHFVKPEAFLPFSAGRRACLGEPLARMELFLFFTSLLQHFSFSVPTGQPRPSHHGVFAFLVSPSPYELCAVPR

Chain of hERG ion channel (Q12809 whole entry): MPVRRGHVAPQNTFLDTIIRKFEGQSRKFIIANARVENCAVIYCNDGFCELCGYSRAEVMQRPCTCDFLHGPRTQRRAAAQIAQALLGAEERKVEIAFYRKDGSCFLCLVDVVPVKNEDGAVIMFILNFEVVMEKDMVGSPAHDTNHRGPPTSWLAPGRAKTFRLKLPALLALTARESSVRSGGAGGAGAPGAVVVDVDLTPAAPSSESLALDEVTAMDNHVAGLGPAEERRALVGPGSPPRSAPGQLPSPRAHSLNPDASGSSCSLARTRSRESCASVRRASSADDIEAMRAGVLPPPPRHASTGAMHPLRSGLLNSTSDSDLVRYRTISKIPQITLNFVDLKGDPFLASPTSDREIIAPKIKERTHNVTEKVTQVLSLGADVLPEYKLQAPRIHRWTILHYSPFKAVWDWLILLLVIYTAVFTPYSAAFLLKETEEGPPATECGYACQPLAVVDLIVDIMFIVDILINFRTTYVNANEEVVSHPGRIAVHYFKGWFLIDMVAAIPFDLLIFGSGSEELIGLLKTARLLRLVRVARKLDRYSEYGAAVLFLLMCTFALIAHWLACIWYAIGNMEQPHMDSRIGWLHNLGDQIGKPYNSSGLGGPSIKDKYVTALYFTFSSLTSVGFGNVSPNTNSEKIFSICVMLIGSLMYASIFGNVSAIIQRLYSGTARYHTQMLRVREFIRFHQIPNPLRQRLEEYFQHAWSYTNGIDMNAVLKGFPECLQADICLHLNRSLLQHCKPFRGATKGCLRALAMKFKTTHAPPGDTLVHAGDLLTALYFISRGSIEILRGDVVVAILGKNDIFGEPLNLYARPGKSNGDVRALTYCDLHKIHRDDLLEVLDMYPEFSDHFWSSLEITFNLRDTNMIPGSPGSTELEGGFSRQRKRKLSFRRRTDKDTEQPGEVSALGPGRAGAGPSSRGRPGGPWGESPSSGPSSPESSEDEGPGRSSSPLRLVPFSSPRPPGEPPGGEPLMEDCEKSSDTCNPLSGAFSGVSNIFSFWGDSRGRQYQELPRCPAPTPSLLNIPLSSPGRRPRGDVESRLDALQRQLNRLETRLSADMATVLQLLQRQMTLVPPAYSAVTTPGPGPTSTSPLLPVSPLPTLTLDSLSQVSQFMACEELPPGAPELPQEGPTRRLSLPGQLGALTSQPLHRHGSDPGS
Chain of CYP3A4 (P08684 whole entry): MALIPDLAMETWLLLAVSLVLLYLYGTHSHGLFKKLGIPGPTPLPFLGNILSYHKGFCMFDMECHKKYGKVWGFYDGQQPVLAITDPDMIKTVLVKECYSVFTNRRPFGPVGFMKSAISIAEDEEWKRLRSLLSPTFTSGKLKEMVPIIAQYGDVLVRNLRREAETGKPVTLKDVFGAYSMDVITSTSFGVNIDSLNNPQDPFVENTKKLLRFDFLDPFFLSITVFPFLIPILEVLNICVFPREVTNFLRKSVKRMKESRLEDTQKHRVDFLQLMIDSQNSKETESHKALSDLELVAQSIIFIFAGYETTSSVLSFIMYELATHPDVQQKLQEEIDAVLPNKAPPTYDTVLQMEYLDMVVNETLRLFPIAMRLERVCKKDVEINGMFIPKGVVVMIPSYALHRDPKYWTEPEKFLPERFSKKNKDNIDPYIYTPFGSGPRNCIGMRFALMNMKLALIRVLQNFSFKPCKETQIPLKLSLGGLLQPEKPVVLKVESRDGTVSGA

Compound | drug-drug interaction liability, CYP450 inhibition profile (in words) [1] | IC50 (CYP3A4) [µM] | hERG cardiac safety profile (in words) (hERG ion channel) | IC50 (hERG ion channel) [µM] | solubility at 16 h [2] [µg/mL] | IC50 (CYP2D6) [µM] | Solubility ([2]; 16 hours) [mg/mL]
C[C@]1(O)CC[C@@H](CS(=O)(=O)c2ccc(-c3ccc(C#N)cc3F)cc2C(F)(F)F)CC1 [CHMSA-02-A, 2-fluoro-4′-(((cis-4-hydroxy-4-methylcyclohexyl)methyl)sulfonyl)-3′-(trifluoromethyl)-[1,1′-biphenyl]-4-carbonitrile] | particularly good profile | > 50 | particularly positive profile | > 100 | 20 (≈ 43.9 µM) | > 50 | 
C[C@]1(O)CC[C@@H](CS(=O)(=O)c2ccc(-c3ncc(F)cc3F)c(F)c2)CC1 [CHMSA-03-A, cis-4-(((4-(3,5-difluoropyridin-2-yl)-3-fluorophenyl)sulfonyl)methyl)-1-methylcyclohexan-1-ol] | particularly good profile | > 50 | particularly positive profile | > 100 | 70 (≈ 175 µM) | > 50 | 
C[C@]1(O)CC[C@H](NS(=O)(=O)c2ccc(-c3ccc(Cl)cc3C#N)cc2)CC1 [HMC-C-01-A, reference compound] |  | > 25 |  |  |  | 16.6 | 0.06 (≈ 148 µM)
C[C@]1(O)CC[C@@H](CS(=O)(=O)c2ccc(-c3ccc(C#N)cc3F)cc2)CC1 [CHMSA-01-A, 2-fluoro-4′-(((cis-4-hydroxy-4-methylcyclohexyl)methyl)sulfonyl)-[1,1′-biphenyl]-4-carbonitrile] | particularly good profile | > 50 |  | 24 | 10 (≈ 25.8 µM) | > 50 | 

Source: US11834414B2, “1-methyl-4-[(4-phenylphenyl)sulfonylmethyl]cyclohexyanol and 1-methyl-4-[[4-(2-pyridyl)phenyl]sulfonylmethyl]cyclohexanol compounds and their therapeutic use” (Modern Biosciences Limited, priority 2018, dated 2023)
